# Assay results reported in US8217048B2, “Inhibitors of serine proteases, particularly HCV NS3-NS4A protease” (Vertex Pharmaceuticals Incorporated, priority 2003, dated 2012).
# “And” between values parts separate entries of the source, which are not always exact repeats. Equal entries are not always repeated.
# Columns and labels:
# [1] = target: T1, HCV NS3-NS4A protease (Hepatitis C virus genotype 1a, UniProt P27958); assay: HCV Ki Assay (enzyme, Example 5); format: biochemical; conditions: Ki values, tested according to Example 5 (enzyme); 5AB substrate, tNS3 with KK4A
# T1 construct: The buffer, KK4A, DTT, and tNS3 were combined
# T1 sequence (P27958 1658-1711): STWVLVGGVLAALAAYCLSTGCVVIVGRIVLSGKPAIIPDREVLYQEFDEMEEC
# T1 sequence (P27958 1027-1208): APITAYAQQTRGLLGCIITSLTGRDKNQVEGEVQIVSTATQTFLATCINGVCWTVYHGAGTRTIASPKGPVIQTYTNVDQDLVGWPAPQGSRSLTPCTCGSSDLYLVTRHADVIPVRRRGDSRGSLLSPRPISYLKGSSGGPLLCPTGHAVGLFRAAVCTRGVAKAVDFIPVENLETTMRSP
# Procedure: HPLC Microbore Method for Separation of 5AB Substrate and Products
# NH2-Glu-Asp-Val-Val-(alpha)Abu-Cys-Ser-Met-Ser-Tyr-COOH
# A stock solution of 20 mM 5AB (or concentration of your choice) was made in DMSO w/0.2M DTT. This was stored in aliquots at −20 C.
# Buffer: 50 mM HEPES, pH 7.8; 20% glycerol; 100 mM NaCl
# Total assay volume was 100 μL
# The buffer, KK4A, DTT, and tNS3 were combined; distributed 78 μL each into wells of 96 well plate. This was incubated at 30 C for ˜5-10 min.
# 2.5 μL of appropriate concentration of test compound was dissolved in DMSO (DMSO only for control) and added to each well. This was incubated at room temperature for 15 min.
# Initiated reaction by addition of 20 μL of 250 μM 5AB substrate (25 μM concentration is equivalent or slightly lower than the Km for 5AB).
# Incubated for 20 min at 30 C.
# Terminated reaction by addition of 25 μL of 10% TFA
# Transferred 120 μL aliquots to HPLC vials
# Separated SMSY product from substrate and KK4A by the following method:
# Microbore Separation Method:
# Instrumentation: Agilent 1100
# Column thermostated chamber G1316A
# Diode array detector G1315A
# Solvent A=HPLC grade water+0.1% TFA
# Solvent B=HPLC grade acetonitrile+0.1% TFA
# Stop time: 17 min Post-run time: 10 min.
# [2] = test system: Cells containing hepatitis C virus (HCV) replicon; assay: HCV Replicon Cell Assay (Example 4); format: cell-based; conditions: 48 h, tested according to Example 4 (cell), 50% inhibition of HCV RNA level, 48-hour incubation
# Procedure: HCV Replicon Cell Assay Protocol
# Cells containing hepatitis C virus (HCV) replicon were maintained in DMEM containing 10% fetal bovine serum (FBS), 0.25 mg per ml of G418, with appropriate supplements (media A).
# On day 1, replicon cell monolayer was treated with a trypsin:EDTA mixture, removed, and then media A was diluted into a final concentration of 100,000 cells per ml wit. 10,000 cells in 100 ul were plated into each well of a 96-well tissue culture plate, and cultured overnight in a tissue culture incubator at 37° C.
# On day 2, compounds (in 100% DMSO) were serially diluted into DMEM containing 2% FBS, 0.5% DMSO, with appropriate supplements (media B). The final concentration of DMSO was maintained at 0.5% throughout the dilution series.
# Media on the replicon cell monolayer was removed, and then media B containing various concentrations of compounds was added. Media B without any compound was added to other wells as no compound controls.
# Cells were incubated with compound or 0.5% DMSO in media B for 48 hours in a tissue culture incubator at 37° C. At the end of the 48-hour incubation, the media was removed, and the replicon cell monolayer was washed once with PBS and stored at −80° C. prior to RNA extraction.
# Culture plates with treated replicon cell monolayers were thawed, and a fixed amount of another RNA virus, such as Bovine Viral Diarrhea Virus (BVDV) was added to cells in each well, RNA extraction reagents (such as reagents from RNeasy kits) were added to the cells immediately to avoid degradation of RNA. Total RNA was extracted according the instruction of manufacturer with modification to improve extraction efficiency and consistency. Finally, total cellular RNA, including HCV replicon RNA, was eluted and stored at −80° C. until further processing.
# A Taqman real-time RT-PCR quantification assay was set up with two sets of specific primers and probe. One was for HCV and the other was for BVDV. Total RNA extractants from treated HCV replicon cells was added to the PCR reactions for quantification of both HCV and BVDV RNA in the same PCR well. Experimental failure was flagged and rejected based on the level of BVDV RNA in each well. The level of HCV RNA in each well was calculated according to a standard curve run in the same PCR plate. The percentage of inhibition or decrease of HCV RNA level due to compound treatment was calculated using the DMSO or no compound control as 0% of inhibition. The IC50 (concentration at which 50% inhibition of HCV RNA level is observed) was calculated from the titration curve of any given compound.
smiles,measurement,setting,value
CCCC(NC(=O)[C@H]1C[C@H](Oc2nccc(-c3ccccc3)c2C#N)CN1C(=O)C(NC(=O)C(NC(=O)c1cnccn1)C1CCCCC1)C(C)(C)C)C(=O)C(=O)NC1CC1 (stereo partly drawn) [Compound 31],Ki,[1],100 to 300 nM
CCC[C@H](NC(=O)[C@@H]1C[C@@H](Oc2cccc(NC(C)=O)c2)CN1C(=O)[C@@H](NC(=O)[C@@H](NC(=O)c1cnccn1)C1CCCCC1)C(C)(C)C)C(=O)C(=O)NC1CC1 [Compound 49],Ki,[1],< 100 nM
same,IC50,[2],> 1000 nM
CCC[C@H](NC(=O)[C@@H]1C[C@@H](Oc2ccc(Cl)cc2)CN1C(=O)[C@@H](NC(=O)[C@@H](NC(=O)c1cnccn1)C1CCCCC1)C(C)(C)C)C(=O)C(=O)NC1CC1 [Compound 56],Ki,[1],< 100 nM
same,IC50,[2],< 500 nM
CCC[C@H](NC(=O)[C@@H]1C[C@@H](Oc2cccc(-c3ccccc3)c2)CN1C(=O)[C@@H](NC(=O)[C@@H](NC(=O)c1cnccn1)C1CCCCC1)C(C)(C)C)C(=O)C(=O)NC1CC1 [Compound 15],Ki,[1],< 100 nM
same,IC50,[2],< 500 nM
CCC[C@H](NC(=O)C1C[C@@H](Oc2cc(Cl)cc(Cl)c2)CN1C(=O)[C@@H](NC(=O)[C@@H](NC(=O)c1cnccn1)C1CCCCC1)C(C)(C)C)C(=O)C(=O)NC1CC1 (stereo partly drawn) [Compound 12],Ki,[1],100 to 300 nM
same,IC50,[2],< 500 nM
CCC[C@H](NC(=O)[C@@H]1C[C@@H](Oc2ccc(Cl)c(Cl)c2)CN1C(=O)[C@@H](NC(=O)[C@@H](NC(=O)c1cnccn1)C1CCCCC1)C(C)(C)C)C(=O)C(=O)NC1CC1 [Compound 53],Ki,[1],< 100 nM
same,IC50,[2],< 500 nM
CCC[C@H](NC(=O)[C@@H]1C[C@@H](Oc2ccc(NC(C)=O)cc2)CN1C(=O)[C@@H](NC(=O)[C@@H](NC(=O)c1cnccn1)C1CCCCC1)C(C)(C)C)C(=O)C(=O)NC1CC1 [Compound 51],Ki,[1],< 100 nM
same,IC50,[2],> 1000 nM
CCC[C@H](NC(=O)[C@@H]1C[C@@H](Oc2nc(C(F)(F)F)nc3ccccc23)CN1C(=O)[C@@H](NC(=O)[C@@H](NC(=O)c1cnccn1)C1CCCCC1)C(C)(C)C)C(=O)C(=O)NC1CC1 [Compound 60],Ki,[1],100 to 300 nM
same,IC50,[2],> 1000 nM
CCC[C@H](NC(=O)[C@@H]1C[C@@H](Oc2cccc(C(F)(F)F)c2)CN1C(=O)[C@@H](NC(=O)[C@@H](NC(=O)c1cnccn1)C1CCCCC1)C(C)(C)C)C(=O)C(=O)NC1CC1 [Compound 22],Ki,[1],100 to 300 nM
same,IC50,[2],< 500 nM
CCC[C@H](NC(=O)[C@@H]1C[C@@H](Oc2ccccc2-c2ccccc2)CN1C(=O)[C@@H](NC(=O)[C@@H](NC(=O)c1cnccn1)C1CCCCC1)C(C)(C)C)C(=O)C(=O)NC1CC1 [Compound 17],Ki,[1],> 300 nM
CCC[C@H](NC(=O)[C@@H]1C[C@@H](Oc2ccc(OC(F)(F)F)cc2)CN1C(=O)[C@@H](NC(=O)[C@@H](NC(=O)c1cnccn1)C1CCCCC1)C(C)(C)C)C(=O)C(=O)NC1CC1 [Compound 14],Ki,[1],100 to 300 nM
same,IC50,[2],< 500 nM
CCCC(NC(=O)[C@H]1C[C@H](Oc2ccc(-c3ccccc3)nn2)CN1C(=O)C(NC(=O)C(NC(=O)c1cnccn1)C1CCCCC1)C(C)(C)C)C(=O)C(=O)NC1CC1 (stereo partly drawn) [Compound 28],Ki,[1],> 300 nM
"CCC[C@H](NC(=O)[C@@H]1C[C@@H](Oc2ccc(Cl)cn2)CN1C(=O)[C@@H](NC(=O)[C@@H](NC(=O)c1cnccn1)C1CCCCC1)C(C)(C)C)C(=O)C(=O)NC1CC1 [Compound 59, Pyrazine-2-carboxylic acid ({1-[4-(5-chloro-pyridin-2-yloxy)-2-(1-cyclopropylaminooxalyl-butylcarbamoyl)-pyrrolidine-1-carbonyl]-2,2-dimethyl-propylcarbamoyl}-cyclohexyl-methyl)-amide]",Ki,[1],< 100 nM
same,IC50,[2],< 500 nM
CCC[C@H](NC(=O)[C@@H]1C[C@@H](Oc2ccc(C(=O)N3CCNCC3)cc2)CN1C(=O)[C@@H](NC(=O)[C@@H](NC(=O)c1cnccn1)C1CCCCC1)C(C)(C)C)C(=O)C(=O)NC1CC1 [Compound 71],Ki,[1],100 to 300 nM
same,IC50,[2],> 1000 nM
CCC[C@H](NC(=O)[C@@H]1C[C@@H](Oc2ccc(OC)c3ccccc23)CN1C(=O)[C@@H](NC(=O)[C@@H](NC(=O)c1cnccn1)C1CCCCC1)C(C)(C)C)C(=O)C(=O)NC1CC1 [Compound 38],Ki,[1],< 100 nM
same,IC50,[2],< 500 nM
CCC[C@H](NC(=O)[C@@H]1C[C@@H](Oc2ccc(Cl)cn2)CN1C(=O)[C@@H](NC(=O)[C@@H](NC(=O)[C@H](C)NC(=O)OC)C1CCCCC1)C(C)(C)C)C(=O)C(=O)NC1CC1 [Compound 69],Ki,[1],< 100 nM
CCC[C@H](NC(=O)[C@@H]1C[C@@H](Oc2ccc(Cl)cn2)CN1C(=O)[C@@H](NC(=O)[C@@H](NC(=O)c1cnccn1)C1CCCCC1)C(C)(C)C)C(=O)C(=O)CC(C)C [Compound 75],Ki,[1],> 300 nM
CCC[C@H](NC(=O)C1C[C@@H](Oc2ccccc2OC(F)(F)F)CN1C(=O)[C@@H](NC(=O)[C@@H](NC(=O)c1cnccn1)C1CCCCC1)C(C)(C)C)C(=O)C(=O)NC1CC1 (stereo partly drawn) [Compound 9],Ki,[1],> 300 nM
CCCC(NC(=O)[C@H]1C[C@H](Oc2ncccc2[N+](=O)[O-])CN1C(=O)C(NC(=O)C(NC(=O)c1cnccn1)C1CCCCC1)C(C)(C)C)C(=O)C(=O)NC1CC1 (stereo partly drawn) [Compound 33],Ki,[1],100 to 300 nM
CCC[C@H](NC(=O)[C@@H]1C[C@@H](Oc2ccc(C(=O)OC)cc2)CN1C(=O)[C@@H](NC(=O)[C@@H](NC(=O)c1cnccn1)C1CCCCC1)C(C)(C)C)C(=O)C(=O)NC1CC1 [Compound 52],Ki,[1],< 100 nM
CCC[C@H](NC(=O)[C@@H]1C[C@@H](Oc2cccc(OC)c2OC)CN1C(=O)[C@@H](NC(=O)[C@@H](NC(=O)c1cnccn1)C1CCCCC1)C(C)(C)C)C(=O)C(=O)NC1CC1 [Compound 23],Ki,[1],100 to 300 nM
CCCC(NC(=O)[C@H]1C[C@H](Oc2ccc(C(F)(F)F)cn2)CN1C(=O)C(NC(=O)C(NC(=O)c1cnccn1)C1CCCCC1)C(C)(C)C)C(=O)C(=O)NC1CC1 (stereo partly drawn) [Compound 27],Ki,[1],> 300 nM
CCCC(NC(=O)[C@H]1C[C@H](Oc2cc(C(F)(F)F)ncn2)CN1C(=O)C(NC(=O)C(NC(=O)c1cnccn1)C1CCCCC1)C(C)(C)C)C(=O)C(=O)NC1CC1 (stereo partly drawn) [Compound 30],Ki,[1],100 to 300 nM
CCCC(NC(=O)[C@H]1C[C@H](Oc2ncncc2F)CN1C(=O)C(NC(=O)C(NC(=O)c1cnccn1)C1CCCCC1)C(C)(C)C)C(=O)C(=O)NC1CC1 (stereo partly drawn) [Compound 32],Ki,[1],< 100 nM
CCC[C@H](NC(=O)[C@@H]1C[C@@H](Oc2cccc3ccccc23)CN1C(=O)[C@@H](NC(=O)[C@@H](NC(=O)c1ncc[nH]1)C1CCCCC1)C(C)(C)C)C(=O)C(=O)NC1CC1 [Compound 37],Ki,[1],< 100 nM
CCCC(NC(=O)[C@H]1C[C@H](Oc2ccnc(C(F)(F)F)n2)CN1C(=O)C(NC(=O)C(NC(=O)c1cnccn1)C1CCCCC1)C(C)(C)C)C(=O)C(=O)NC1CC1 (stereo partly drawn) [Compound 29],Ki,[1],> 300 nM
CCCC(NC(=O)[C@H]1C[C@H](Oc2nccc(C(F)(F)F)n2)CN1C(=O)C(NC(=O)C(NC(=O)c1cnccn1)C1CCCCC1)C(C)(C)C)C(=O)C(=O)NC1CC1 (stereo partly drawn) [Compound 74],Ki,[1],> 300 nM
CCC[C@H](NC(=O)[C@@H]1C[C@@H](Oc2cccc(OC)c2)CN1C(=O)[C@@H](NC(=O)[C@@H](NC(=O)c1cnccn1)C1CCCCC1)C(C)(C)C)C(=O)C(=O)NC1CC1 [Compound 21],Ki,[1],> 300 nM
CCC[C@H](NC(=O)[C@@H]1C[C@@H](Oc2cccc(Cl)n2)CN1C(=O)[C@@H](NC(=O)[C@@H](NC(=O)c1cnccn1)C1CCCCC1)C(C)(C)C)C(=O)C(=O)NC1CC1 [Compound 25],Ki,[1],100 to 300 nM
C=CCCC(=O)C(=O)[C@H](CCC)NC(=O)[C@@H]1C[C@@H](Oc2ccc(Cl)cn2)CN1C(=O)[C@@H](NC(=O)[C@@H](NC(=O)c1cnccn1)C1CCCCC1)C(C)(C)C [Compound 76],Ki,[1],100 to 300 nM and > 300 nM
